In paper PMC9057582, “HIF inhibitor 32-134D eradicates murine hepatocellular carcinoma in combination with anti-PD1 therapy” (The Journal of Clinical Investigation, 2022):

How the values were obtained:
[1] = test system: HIF target genes in Hep3B cells; assay: RT-qPCR of endogenous HIF target gene expression in Hep3B cells; assay type: cell-based, human
From the text: Based on this hit, we synthesized analogs in which either halogen substitutions to the indole groups were altered or the central thiazole was replaced by imidazole, isoxazole, oxadiazole, oxazole, pyrazinone, pyridazine, pyrazine, pyrazole, pyridine, thiadiazole, triazine, or triazole. […] We focused on analyzing the effect of the bis-bromoindole thiazole 32-134D and the bis-indole thiadiazole 33-063 on endogenous HIF target gene expression in Hep3B cells. […] For comparison, we tested the effect of PT2385, which inhibited EPO, NDRG1, ANGPTL4, and VEGFA expression but had no effect on CA9, which is consistent with its HIF-2–selective mechanism of action ([44]). None of the compounds had any effect on RPL13A expression, which is neither induced by hypoxia nor regulated by HIFs (Supplemental Figure 2D).
Human Hep3B and mouse Hepa1-6 cells were purchased from ATCC and grown in high-glucose (4.5 mg/mL) Dulbecco’s modified Eagle’s medium supplemented with 10% (vol/vol) fetal bovine serum and 1% penicillin/streptomycin at 37°C in a 5% CO2/95% air incubator (Supplemental Table 6). Human cell line identity was authenticated by analysis of short tandem repeats, and all cell lines were maintained mycoplasma free, using PCR-based assays conducted at the Johns Hopkins University Genetic Resources Core Facility (JHU GRCF). Cells were subjected to hypoxia in a controlled atmosphere chamber (PLAS Labs) with ambient gas mixture containing 1% O2 and 5% CO2.
RNA was extracted using TRIzol Reagent. Quantitative real-time PCR was conducted using SYBR Green PCR Master Mix and reactions were run using a Bio-Rad thermal cycler. Primer sequences and reagent sources are listed in Supplemental Table 5. The mRNA expression of target genes was normalized to the expression of 18S rRNA and the fold change (FC) was calculated based on the threshold cycle (Ct) as FC = 2^–Δ(ΔCt), where ΔCt = Cttarget gene – Ct18S rRNA and Δ(ΔCt) = ΔCttreatment – ΔCtcontrol. For RNA-seq, total RNA was isolated and treated with DNase (Qiagen). The JHU GRCF High-Throughput Sequencing facility prepared libraries and performed RNA-seq. The RNA-seq data were processed and interpreted using Genialis Expressions software (https://www.genialis.com/expressions/). An automated data analysis pipeline run in the Genialis platform consisted of the following: Sequence quality checks were performed on raw and trimmed reads with FastQC. Bbduk was used to trim adapters and filter out poor quality reads. Trimmed reads were then mapped to the STAR index (ENSEMBL 100) reference genome using the STAR ([93]) aligner. Gene expression levels were quantified with featureCounts ([94]), and differential gene expression analyses were performed with DESeq2 ([95]). […] Differential expression was determined with an FDR of less than 0.05 and mRNA FC of greater than 1.5 to identify hypoxia-induced genes and genes inhibited by 32-134D. Data used in this study have been deposited in the NCBI Gene Expression Omnibus database (GEO GSE195997).
Supplemental Figure 2. Effect of 32-134D on gene expression in Hep3B cells. (A-D) Hep3B cells were exposed to 20% O2 in the presence of vehicle (first bar; no fill) or 1% O2 in the presence of: vehicle (blue bar) or the indicated concentration of 32-134D (bars with red fill) or 33-063 (bars with green fill), or PT2385 (bars with brown fill) for 24 hours and the indicated mRNAs were quantified by reverse transcription and quantitative real-time PCR (qPCR). Data are presented as mean + SEM (n = 3). *p < 0.05 vs white; **p < 0.01 vs blue (ANOVA with Bonferroni post-test). […]
(G-H) Analysis of HIF-1a (G) and HIF-2a (H) […]
mRNA expression in Hep3B cells exposed to vehicle or 32-134D at 20% or 1% O2 for 24

[2] = test system: HIF-1α and HIF-2α protein; assay: Immunoblot of nuclear extracts of Hep3B cells; assay type: cell-based, human; conditions: 5 μM, 24 hours
Procedure: Figure 1 Identification of HIF inhibitors. (A) Hep3B-c1 cells were stably transfected with firefly luciferase (FLuc) reporter p2.1, which contains a hypoxia-response element (HRE), and Renilla luciferase (RLuc) reporter pSVR. (B) Hep3B-c1 cells were incubated with vehicle (Veh; 0.1% DMSO; blue bars) or 10 μM 32-134D (red bars) at 20% O2 (n = 6) or 1% O2 (n = 12) for 24 hours. Cell lysates were assayed for Fluc/Rluc activity (mean ± SEM); *P < 0.05 versus vehicle (χ^2 test). (C) Chemical structures and IC50 values for HIF inhibitors. (D and E) Hep3B cells were exposed to 20% O2 with vehicle, or 1% O2 with vehicle (blue bar), 32-134D (red bars), 33-063 (green bars), or PT2385 (brown bars) for 24 hours and CA9 (D) and EPO (E) mRNAs were quantified by RT-qPCR. […] (F) Hep3B cells were exposed to 20% or 1% O2 in the presence of vehicle or 1% O2 in the presence of 5 μM 32-134D (n = 3 each) for 24 hours. RNA sequencing identified genes with hypoxia-induced expression (blue circle) and genes that were inhibited by 32-134D (orange circle), based on FDR < 0.05 and fold change > 1.5. (G) Hep3B cells were exposed to 20% or 1% O2 for 24 hours in the presence of vehicle or 5 μM 32-134D, nuclear extracts were prepared, and immunoblot assays were performed. […]

Brc1ccc2c(-c3csc(-c4c[nH]c5c(Br)cccc45)n3)c[nH]c2c1 [Compound 32-134D]
hypoxia-induced ANGPTL4, VEGFA, NDRG1 and EPO mRNA expression ([1]; Hep3B cells, 1% O2, 24 hours): significantly inhibited | hypoxia-induced CA9 mRNA expression (activated by HIF-1 only) ([1]; Hep3B cells, 1% O2, 24 hours): significantly inhibited | HIF-1α or HIF-2α mRNA expression ([1]; Hep3B, 24 hours): no effect | HIF-1α protein expression [2]: inhibited
